Reference: US20140094512A1, “METHOD OF MODULATING THE DEGREE OF ADIPOSE TISSUE DEPOSITED INTRAMUSCULARLY” (priority 2012, published 2014)
Each block holds one compound with its values, some of them ahead of it.

Tests used:
[1] = tested on: bovine SVF cells; experiment: retinoic acid induced inhibition of the differentiation of bovine SVF cells to adipocytes, Oil Red O staining; format: cell-based; settings: for Oil Red O absorbance (OD minus blank), well1 / Oil Red O absorbance (OD minus blank), well2 / Oil Red O absorbance (OD minus blank), average / lipid accumulation compared with control cells: bovine SVF cells; for Oil Red O absorbance (OD minus blank), well1 / Oil Red O absorbance (OD minus blank), well2 / Oil Red O absorbance (OD minus blank), average: OD 530 nm, day 13; for Oil Red O absorbance (OD minus blank), average: control average 0.4465
Protocol: The efficiency of the RAR antagonists compounds No. 1, 3, 4 and 5 in blocking the antiadipogenic effect of ATRA on bovine cells was investigated. The cells used in this experiment were from a primary culture of the stromal-vascular fraction isolated from intramuscular fat of an Angus steer.
To assess the adipocyte differentiation state, the cells of a 12-well plate were stained with “Oil Red O” and after conveniently extraction of the dye from the lipid droplets the absorbance was measured with a microplate reader.
Cells of a bovine stromal-vascular fraction from intramuscular fat (passage 4) of one flask (75 cm^2) were trypsinized by treating the adherent cells with 2 ml 0.25% Trypsin-EDTA. The reaction was stopped with growth medium (DMEM, 1% (v/v) of antibiotic solution, 50 μg/ml gentamicin sulfate, 33 μM biotin, 17 μM D-pantothenate, 100 μM (+)-sodium L-ascorbate and 10% FCS heat inactivated) and 1.5 ml of this cell suspension were added to each well of a 12-well-plate. Cells were incubated at 37° C./5% CO2 in an incubator.
One day after cells reach confluency the growth medium was removed and adipogenesis initiation medium (growth medium/0.25 μM Dexamethasone/10 μg/ml Insulin/1 μM rosiglitazone) was added into 2 wells (i.e., in duplicate) without further compounds. Adipogenesis initiation medium additionally containing 0.1 μM ATRA was added into 2 wells without further compounds and alternative with 1 μM of compound No. 1, compound No. 3, compound No. 4 and compound No. 5 into 2 wells each of the 12-well plate.
After incubation for three days, the adipogenesis initiation medium was removed and 1.5 ml adipogenesis medium (growth medium/10 μg/ml Insulin/1 μM rosiglitazone) containing the substances as indicated above was added per well. The culture medium was replaced twice a week.
Thirteen days after addition of adipogenesis initiation medium the medium was removed and cells of the 12-well plate were fixed and stained with Oil Red O as previously described.
The absorbance is reported in Table 3 and FIG. 2 as the difference of the observed OD of extracted dye at 530 nm and a blank well OD value.

[2] = tested on: 3T3-L1 preadipocyte; experiment: retinoic acid induced inhibition of 3T3-L1-preadipocyte differentiation, Oil Red O staining of lipid droplets; format: cell-based, mouse; settings: for Oil Red O absorbance (OD minus blank), well1 / Oil Red O absorbance (OD minus blank), well2 / Oil Red O absorbance (OD minus blank), average: OD 492 nm; for Oil Red O absorbance (OD minus blank), well1 / Oil Red O absorbance (OD minus blank), well2: day 9; for Oil Red O absorbance (OD minus blank), average: day 9, control average 0.5263
Protocol: The effectiveness of the RAR alpha antagonists Compounds No. 2, 3 and 4 and the RAR pan antagonist Compound No. 1 in blocking the inhibitory effect of all-trans retinoic acid (ATRA) on 3T3-L1 preadipocyte differentiation was investigated.
In this experiment the “Oil Red O”-staining of lipid droplets is used as indicator of the degree of adipogenesis. After conveniently extraction of the dye from the lipid droplets the absorbance was measured with a microplate reader.
3T3-L1-cells (passage 7) of one flask (75 cm^2) were trypsinized by treating the adherent cells with 2 ml 0.25% Trypsin-EDTA. The reaction was stopped with fibroblast growth medium (DMEM/10% Newborn Calf Serum/1% Penicillin/Streptomycin) and 1 ml of this cellsuspension were added to each well of a 12-well-plate. Cells were incubated at 37° C./5% CO2 in an incubator.
One day after cells reach confluency the fibroblast growth medium was removed and adipogenesis initiation medium (DMEM/10% FBS/1 μM Dexamethasone/0.5 mM IBMX/1 μg/ml Insulin) was added into 2 wells (i.e., in duplicate) without further substances (control), into 2 wells with 0.1 μM ATRA+ alternative 1 μM of compound No. 4, Compound No. 2, Compound No. 3 and 1 into 2 wells with 0.1 μM ATRA.
After incubation for two days, the adipogenesis initiation medium was removed and 1.5 ml adipogenesis medium (DMEM/10% FBS/1 μg/ml Insulin) containing the substances as indicated above was added per well. After another three days of incubation, the medium was replaced by adipogenesis medium without any additional substances. The culture medium was replaced every 2 or 3 days.
Nine days after addition of adipogenesis initiation medium, the medium was removed from all wells. Cells were fixed and stained with Oil Red O as follows:
Fix the cells in 10% formalin in PBS, remove formalin, dry completely, wash with PBS, dry at room temperature; Prepare Oil red O working solution by diluting 3 parts Oil Red O stock solution with 2 parts dH2O; Add Oil red O working solution for 1 hour; Remove all Oil Red O and immediately add dH2O, wash with dH2O until water is colourless; Wash with 60% isopropanol, dry completely at room temperature; elute Oil red O by adding 60% isopropaniol/4% Triton X-100 solution for 1.5 hours; transfer to 96 well plate; measure absorption (optical density—OD) at 492 nm (Tecan Spectraflour plus)
The absorbance is reported in Table 2 and FIG. 1 as the difference of the observed OD of extracted dye at 492 nm and a blank well OD value.

[3] = biological target: T1, RARβ (Homo sapiens, UniProt P10826); experiment: luciferase based RA responsive reporter assay, RARβ; format: cell-based; settings: antagonist
T1 sequence (P10826 1-455): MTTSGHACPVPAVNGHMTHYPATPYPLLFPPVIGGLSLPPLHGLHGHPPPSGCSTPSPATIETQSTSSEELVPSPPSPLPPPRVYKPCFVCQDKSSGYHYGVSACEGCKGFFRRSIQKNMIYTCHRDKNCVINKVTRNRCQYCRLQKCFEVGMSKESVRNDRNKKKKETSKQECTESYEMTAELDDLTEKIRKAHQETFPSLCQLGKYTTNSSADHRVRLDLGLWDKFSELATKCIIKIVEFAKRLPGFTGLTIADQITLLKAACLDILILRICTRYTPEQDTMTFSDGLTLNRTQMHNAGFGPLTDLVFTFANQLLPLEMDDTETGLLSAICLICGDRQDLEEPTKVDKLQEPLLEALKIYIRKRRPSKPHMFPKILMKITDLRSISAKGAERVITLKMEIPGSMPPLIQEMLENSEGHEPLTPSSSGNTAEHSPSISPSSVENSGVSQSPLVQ

[4] = biological target: T2, RARγ (Homo sapiens, UniProt P13631); experiment: luciferase based RA responsive reporter assay, RARγ; format: cell-based; settings: antagonist
T2 sequence (P13631 1-454): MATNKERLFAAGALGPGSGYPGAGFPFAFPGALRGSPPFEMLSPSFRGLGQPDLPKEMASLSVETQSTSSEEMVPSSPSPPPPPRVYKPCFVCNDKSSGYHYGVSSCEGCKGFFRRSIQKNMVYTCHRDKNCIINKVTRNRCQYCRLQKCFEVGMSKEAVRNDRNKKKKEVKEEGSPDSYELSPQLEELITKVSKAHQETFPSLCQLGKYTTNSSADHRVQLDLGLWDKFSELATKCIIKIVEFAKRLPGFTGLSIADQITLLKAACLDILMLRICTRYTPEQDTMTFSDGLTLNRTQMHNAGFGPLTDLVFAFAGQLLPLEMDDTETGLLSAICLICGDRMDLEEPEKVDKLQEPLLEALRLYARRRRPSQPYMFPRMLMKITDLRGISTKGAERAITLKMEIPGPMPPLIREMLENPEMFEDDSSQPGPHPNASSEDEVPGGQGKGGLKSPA

[5] = tested on: RARs; experiment: agonistic activity on RARs; format: cell-based
[6] = biological target: T3, RARα (Homo sapiens, UniProt P10276); experiment: luciferase based RA responsive reporter assay, RARα; format: cell-based; settings: antagonist
T3 sequence (P10276 1-462): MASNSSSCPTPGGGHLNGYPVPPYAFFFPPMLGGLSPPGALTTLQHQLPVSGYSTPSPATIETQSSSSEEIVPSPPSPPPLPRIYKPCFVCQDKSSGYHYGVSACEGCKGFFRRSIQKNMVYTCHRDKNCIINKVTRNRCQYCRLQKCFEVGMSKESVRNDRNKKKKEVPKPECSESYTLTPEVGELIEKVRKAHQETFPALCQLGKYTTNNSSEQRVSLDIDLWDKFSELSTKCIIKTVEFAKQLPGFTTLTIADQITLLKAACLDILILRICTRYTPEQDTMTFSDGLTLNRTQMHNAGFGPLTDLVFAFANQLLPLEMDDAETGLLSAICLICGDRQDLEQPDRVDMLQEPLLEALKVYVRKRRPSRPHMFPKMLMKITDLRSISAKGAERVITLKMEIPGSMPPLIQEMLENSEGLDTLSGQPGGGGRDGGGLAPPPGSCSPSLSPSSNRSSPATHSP

Structure (SMILES): CC1=C(/C=C/C(C)=C/C=C/C(C)=C/C(=O)O)C(C)(C)CCC1 [ATRA, all-trans retinoic acid]
Oil Red O absorbance (OD minus blank), well1 ([1]; ATRA 0.1 μM alone): 0.1409 | Oil Red O absorbance (OD minus blank), well2 ([1]; ATRA 0.1 μM alone): 0.1924 | Oil Red O absorbance (OD minus blank), average ([1]; ATRA 0.1 μM alone): 0.1667 | amount of Oil Red O stainable lipid droplets ([1]; ATRA 0.1 μM alone, bovine cells): clearly decreased | amount of differentiated lipid-containing adipocytes ([2]; ATRA 0.1 μM alone): significantly reduced | Oil Red O absorbance (OD minus blank), well1 ([2]; ATRA 0.1 μM alone): 0.0925 | Oil Red O absorbance (OD minus blank), well2 ([2]; ATRA 0.1 μM alone): 0.0727 | Oil Red O absorbance (OD minus blank), average ([2]; ATRA 0.1 μM alone): 0.0826

Structure (SMILES): Cc1ccc(C2=CCC(C)(C)c3ccc(C#Cc4ccc(C(=O)O)cc4)cc32)cc1 [Compound No. 1]
lipid accumulation compared with control cells ([1]; 1 μM compound + 0.1 μM ATRA): lipid accumulation of control cells is not reached | Oil Red O absorbance (OD minus blank), well1 ([1]; 1 μM compound + 0.1 μM ATRA): 0.2849 | Oil Red O absorbance (OD minus blank), well2 ([1]; 1 μM compound + 0.1 μM ATRA): 0.3493 | Oil Red O absorbance (OD minus blank), average ([1]; 1 μM compound + 0.1 μM ATRA): 0.3171 | Oil Red O absorbance (OD minus blank), well1 ([2]; 1 μM compound + 0.1 μM ATRA): 0.1736 | Oil Red O absorbance (OD minus blank), well2 ([2]; 1 μM compound + 0.1 μM ATRA): 0.1792 | Oil Red O absorbance (OD minus blank), average ([2]; 1 μM compound + 0.1 μM ATRA): 0.1764

Structure (SMILES): Cc1ccc(C2=CC(C)(C)Oc3c(Br)cc(C(=O)Nc4cc(F)c(C(=O)O)c(F)c4)cc32)cc1 [Compound No. 2]
Oil Red O absorbance (OD minus blank), well1 ([2]; 1 μM compound + 0.1 μM ATRA): 0.2264 | Oil Red O absorbance (OD minus blank), well2 ([2]; 1 μM compound + 0.1 μM ATRA): 0.2267 | Oil Red O absorbance (OD minus blank), average ([2]; 1 μM compound + 0.1 μM ATRA): 0.2266

Structure (SMILES): CC1(C)CC=C(c2cnc3ccccc3c2)c2cc(C(=O)Nc3ccc(C(=O)O)cc3)ccc21 [Compound No. 3]
lipid accumulation compared with control cells ([1]; 1 μM compound + 0.1 μM ATRA): lipid accumulation of control cells is not reached | Oil Red O absorbance (OD minus blank), well1 ([1]; 1 μM compound + 0.1 μM ATRA): 0.3504 | Oil Red O absorbance (OD minus blank), well2 ([1]; 1 μM compound + 0.1 μM ATRA): 0.4044 | Oil Red O absorbance (OD minus blank), average ([1]; 1 μM compound + 0.1 μM ATRA): 0.3774 | Oil Red O absorbance (OD minus blank), well1 ([2]; 1 μM compound + 0.1 μM ATRA): 0.3589 | Oil Red O absorbance (OD minus blank), well2 ([2]; 1 μM compound + 0.1 μM ATRA): 0.2996 | Oil Red O absorbance (OD minus blank), average ([2]; 1 μM compound + 0.1 μM ATRA): 0.3293

IC50 [3]: 2.98 µM | IC50 [4]: 2.35 µM | IC50 [6]: 0.004 µM
Structure (SMILES): Cc1ccc(C2=CC(C)(C)Oc3c(Br)cc(C(=O)Nc4ccc(C(=O)O)cc4)cc32)cc1 [Compound No. 4, 4-[[8-bromo-2,2-dimethyl-4-(p-tolyl)chromene-6-carbonyl]amino]benzoic acid]
Oil Red O absorbance (OD minus blank), well1 ([1]; 1 μM compound + 0.1 μM ATRA): 0.5411 | Oil Red O absorbance (OD minus blank), well2 ([1]; 1 μM compound + 0.1 μM ATRA): 0.6229 | Oil Red O absorbance (OD minus blank), average ([1]; 1 μM compound + 0.1 μM ATRA): 0.5820 | agonistic activity on RARs [5]: lacks any significant agonistic activity | Oil Red O absorbance (OD minus blank), well1 ([2]; 1 μM compound + 0.1 μM ATRA): 0.3361 | Oil Red O absorbance (OD minus blank), well2 ([2]; 1 μM compound + 0.1 μM ATRA): 0.3571 | Oil Red O absorbance (OD minus blank), average ([2]; 1 μM compound + 0.1 μM ATRA): 0.3466

Structure (SMILES): CN1c2cc3c(cc2N=C(c2ccc(C(=O)O)cc2)c2ccc4ccccc4c21)C(C)(C)CCC3(C)C [Compound No. 5]
lipid accumulation compared with control cells ([1]; 1 μM compound + 0.1 μM ATRA): lipid accumulation of control cells is not reached | Oil Red O absorbance (OD minus blank), well1 ([1]; 1 μM compound + 0.1 μM ATRA): 0.2915 | Oil Red O absorbance (OD minus blank), well2 ([1]; 1 μM compound + 0.1 μM ATRA): 0.3318 | Oil Red O absorbance (OD minus blank), average ([1]; 1 μM compound + 0.1 μM ATRA): 0.3117
